Common to all, as to test: Kinase binding assay (kinase-tagged T7 phage, qPCR), Kd
One test has as its target T1, FGFR1 (Homo sapiens, UniProt P11362).
T1 construct: made in house; host or cells: E. coli derived from BL21, infected with T7 phage
To be noted: read-out: FGFR1 (Kd nM). On the procedure:
(§1) Kinase-tagged T7 phage strains were prepared in an E. coli host derived from the BL21 strain. E. coli were grown to log-phase and infected with T7 phage and incubated with shaking at 32° C. until lysis. The lysates were centrifuged and filtered to remove cell debris. […] The liganded beads were blocked with excess biotin and washed with blocking buffer SeaBlock (Pierce), 1% BSA, 0.05% Tween 20, 1 mM DTT to remove unbound ligand and to reduce non-specific binding.
(§2) Kds were determined using an 11-point 3-fold compound dilution series with three DMSO control points. […] The compounds were then diluted directly into the assays such that the final concentration of DMSO was 0.9%. All reactions performed in polypropylene 384-well plate. Each was a final volume of 0.02 ml. […] The kinase concentration in the eluates was measured by qPCR.
(§3) Binding constants were calculated with a standard dose-response curve using the Hill equation: […]
(§4) The Hill Slope was set to −1. Curves were fitted using a non-linear least square fit with the Levenberg-Marquardt algorithm.

A further test has as its target T2, FGFR2 (Homo sapiens, UniProt P21802).
T2 construct: made in house; host or cells: E. coli derived from BL21, infected with T7 phage
As to conditions: read-out: FGFR2 (Kd nM). On the procedure:
as §1, §2, §3, §4

The target in a further test is T3, FGFR3 (Homo sapiens, UniProt P22607).
T3 construct: made in house; host or cells: E. coli derived from BL21, infected with T7 phage
T3 sequence (P22607 23-806): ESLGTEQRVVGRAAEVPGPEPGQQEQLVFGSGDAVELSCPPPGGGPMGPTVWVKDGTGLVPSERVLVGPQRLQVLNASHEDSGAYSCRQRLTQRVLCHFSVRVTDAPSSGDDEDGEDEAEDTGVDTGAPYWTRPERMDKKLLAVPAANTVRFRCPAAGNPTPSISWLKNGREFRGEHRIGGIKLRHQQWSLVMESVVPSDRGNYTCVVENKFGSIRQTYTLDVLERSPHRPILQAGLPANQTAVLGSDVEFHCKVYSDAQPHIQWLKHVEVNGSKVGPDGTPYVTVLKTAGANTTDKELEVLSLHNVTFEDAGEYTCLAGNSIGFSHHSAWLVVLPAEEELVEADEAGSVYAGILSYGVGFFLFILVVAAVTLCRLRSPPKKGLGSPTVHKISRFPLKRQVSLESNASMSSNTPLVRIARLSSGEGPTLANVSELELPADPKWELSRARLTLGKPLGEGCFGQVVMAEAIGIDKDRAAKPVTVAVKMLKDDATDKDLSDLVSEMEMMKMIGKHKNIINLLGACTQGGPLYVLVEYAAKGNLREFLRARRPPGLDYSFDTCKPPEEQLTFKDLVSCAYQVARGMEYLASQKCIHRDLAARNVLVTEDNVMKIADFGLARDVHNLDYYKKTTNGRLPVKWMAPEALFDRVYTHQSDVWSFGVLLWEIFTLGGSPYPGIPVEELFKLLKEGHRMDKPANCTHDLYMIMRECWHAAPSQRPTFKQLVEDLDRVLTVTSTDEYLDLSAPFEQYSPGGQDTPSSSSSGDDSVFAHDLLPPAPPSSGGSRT
As to conditions: read-out: FGFR3 (Kd nM). How it is done: (§5) Kinase-tagged T7 phage strains were prepared in an E. coli host derived from the BL21 strain. E. coli were grown to log-phase and infected with T7 phage and incubated with shaking at 32° C. until lysis. The lysates were centrifuged and filtered to remove cell debris. Streptavidin-coated magnetic beads were treated with biotinylated small molecule ligands for 30 minutes at room temperature to generate affinity resins for kinase assays. The liganded beads were blocked with excess biotin and washed with blocking buffer SeaBlock (Pierce), 1% BSA, 0.05% Tween 20, 1 mM DTT to remove unbound ligand and to reduce non-specific binding. Binding reactions were assembled by combining kinases, liganded affinity beads, and test compounds in 1× binding buffer (20% SeaBlock, 0.17×PBS, 0.05% Tween 20, 6 mM DTT).
(§6) Test compounds were prepared as 111X stocks in 100% DMSO. Kds were determined using an 11-point 3-fold compound dilution series with three DMSO control points. All compounds for Kd measurements are distributed by acoustic transfer (non-contact dispensing) in 100% DMSO. The compounds were then diluted directly into the assays such that the final concentration of DMSO was 0.9%. All reactions performed in polypropylene 384-well plate. Each was a final volume of 0.02 ml. The assay plates were incubated at room temperature with shaking for 1 hour and the affinity beads were washed with wash buffer (1×PBS, 0.05% Tween 20). The beads were then re-suspended in elution buffer (1×PBS, 0.05% Tween 20, 0.5 μM non-biotinylated affinity ligand) and incubated at room temperature with shaking for 30 minutes. The kinase concentration in the eluates was measured by qPCR.
as §3, §4

The next test deals with T4, FGFR4 (Homo sapiens, UniProt P22455).
T4 construct: made in house; host or cells: E. coli derived from BL21, infected with T7 phage
T4 sequence (P22455 22-802): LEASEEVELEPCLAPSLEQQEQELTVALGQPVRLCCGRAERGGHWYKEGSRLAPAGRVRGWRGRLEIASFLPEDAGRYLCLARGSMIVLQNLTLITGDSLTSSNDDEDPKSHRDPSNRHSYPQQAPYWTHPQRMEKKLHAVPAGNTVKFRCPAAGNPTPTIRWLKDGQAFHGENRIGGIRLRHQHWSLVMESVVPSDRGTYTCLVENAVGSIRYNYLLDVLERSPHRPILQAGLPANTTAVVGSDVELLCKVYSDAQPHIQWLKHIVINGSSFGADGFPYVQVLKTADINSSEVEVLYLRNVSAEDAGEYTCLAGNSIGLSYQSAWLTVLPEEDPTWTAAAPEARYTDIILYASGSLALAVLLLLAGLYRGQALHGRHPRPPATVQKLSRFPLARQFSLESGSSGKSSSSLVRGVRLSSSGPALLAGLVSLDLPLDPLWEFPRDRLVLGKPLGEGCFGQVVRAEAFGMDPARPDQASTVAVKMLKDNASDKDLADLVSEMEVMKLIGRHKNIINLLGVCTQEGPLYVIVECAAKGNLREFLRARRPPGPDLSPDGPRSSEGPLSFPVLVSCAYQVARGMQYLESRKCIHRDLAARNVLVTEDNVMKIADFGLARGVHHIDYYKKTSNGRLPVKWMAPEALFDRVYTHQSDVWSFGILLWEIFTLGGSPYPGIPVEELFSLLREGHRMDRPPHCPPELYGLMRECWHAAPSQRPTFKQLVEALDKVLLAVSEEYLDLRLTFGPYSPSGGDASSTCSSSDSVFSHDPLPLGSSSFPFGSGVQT
To be noted: read-out: FGFR4 (Kd nM). How it is done:
as §5, §6, §3, §4

Where two headings read alike, the source gives them in different places.

T2 sequence (P21802 22-821): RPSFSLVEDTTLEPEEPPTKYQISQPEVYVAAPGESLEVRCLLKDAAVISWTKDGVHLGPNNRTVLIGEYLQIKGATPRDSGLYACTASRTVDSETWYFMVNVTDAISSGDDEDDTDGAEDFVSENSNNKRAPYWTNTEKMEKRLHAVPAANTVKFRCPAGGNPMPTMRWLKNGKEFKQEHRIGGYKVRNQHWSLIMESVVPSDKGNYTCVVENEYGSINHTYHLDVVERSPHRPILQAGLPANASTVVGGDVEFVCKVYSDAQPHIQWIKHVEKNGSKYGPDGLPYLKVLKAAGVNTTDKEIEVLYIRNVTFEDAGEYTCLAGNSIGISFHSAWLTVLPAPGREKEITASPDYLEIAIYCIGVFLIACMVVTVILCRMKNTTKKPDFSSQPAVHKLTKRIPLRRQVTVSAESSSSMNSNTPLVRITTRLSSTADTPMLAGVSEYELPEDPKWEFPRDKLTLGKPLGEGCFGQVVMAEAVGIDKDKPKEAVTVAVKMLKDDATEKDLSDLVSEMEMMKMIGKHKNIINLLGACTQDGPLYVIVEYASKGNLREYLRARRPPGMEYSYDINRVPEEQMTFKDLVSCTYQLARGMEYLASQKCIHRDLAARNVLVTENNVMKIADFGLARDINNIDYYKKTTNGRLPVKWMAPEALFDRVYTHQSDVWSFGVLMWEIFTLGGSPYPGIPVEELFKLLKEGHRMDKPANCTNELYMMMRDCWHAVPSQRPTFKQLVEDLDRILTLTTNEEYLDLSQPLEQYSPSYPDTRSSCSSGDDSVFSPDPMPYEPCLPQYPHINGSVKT
T1 sequence (P11362 22-822): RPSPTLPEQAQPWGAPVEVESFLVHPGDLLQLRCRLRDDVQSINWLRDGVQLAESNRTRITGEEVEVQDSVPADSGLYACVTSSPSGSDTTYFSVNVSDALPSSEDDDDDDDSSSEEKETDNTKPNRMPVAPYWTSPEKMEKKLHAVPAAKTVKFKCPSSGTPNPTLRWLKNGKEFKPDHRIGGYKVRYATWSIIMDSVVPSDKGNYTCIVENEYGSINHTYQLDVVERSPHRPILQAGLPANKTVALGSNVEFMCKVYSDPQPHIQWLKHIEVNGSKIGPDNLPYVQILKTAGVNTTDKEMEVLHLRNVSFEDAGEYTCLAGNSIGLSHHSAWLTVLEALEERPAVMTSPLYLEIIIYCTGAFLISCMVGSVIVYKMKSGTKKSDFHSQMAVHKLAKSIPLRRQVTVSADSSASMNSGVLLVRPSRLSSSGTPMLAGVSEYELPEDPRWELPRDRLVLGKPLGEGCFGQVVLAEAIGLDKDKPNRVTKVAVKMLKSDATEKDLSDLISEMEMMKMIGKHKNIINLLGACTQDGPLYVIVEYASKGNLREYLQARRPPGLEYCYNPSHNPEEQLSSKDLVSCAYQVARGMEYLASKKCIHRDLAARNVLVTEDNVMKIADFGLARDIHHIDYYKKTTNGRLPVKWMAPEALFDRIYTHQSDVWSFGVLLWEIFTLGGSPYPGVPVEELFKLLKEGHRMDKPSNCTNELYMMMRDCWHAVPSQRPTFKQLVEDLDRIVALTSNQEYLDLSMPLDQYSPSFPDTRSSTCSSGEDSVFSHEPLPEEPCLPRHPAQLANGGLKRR

Consider `COc1cc(-c2n[nH]c3ccc(O[C@H](C)c4c(C)cnnc4C)cc23)cc(C#N)c1F` [Example 93, (R)-5-(5-(1-(3,5-dimethylpyridazin-4-yl)ethoxy)-1H-indazol-3-yl)-2-fluoro-3-methoxybenzonitrile], for which the Kd is greater than 1000 nM at FGFR1, greater than 1000 nM at FGFR2, greater than 1000 nM at FGFR3 and 100 to 250 nM on FGFR4.
Consider `C[C@@H](Oc1ccc2[nH]nc(-c3cnc4c(c3)N(CC(F)(F)F)CCO4)c2c1)c1c(Cl)cncc1Cl` [Example 139, (R)-7-(5-(1-(3,5-dichloropyridin-4-yl)ethoxy)-1H-indazol-3-yl)-1-(2,2,2-trifluoroethyl)-2,3-dihydro-1H-pyrido[2,3-b][1,4]oxazine 2,2,2-trifluoroacetate], for which the Kd on FGFR1, on FGFR2, at FGFR3 and at FGFR4 was greater than 1000 nM throughout.
As for `C[C@@H](Oc1ccc2[nH]nc(-c3cnc4c(c3)N(C(=O)CN(C)C)CCO4)c2c1)c1c(Cl)cncc1Cl` [Example 21, 1-[7-[5-[(1R)-1-(3,5-dichloro-4-pyridyl)ethoxy]-1H-indazol-3-yl]-2,3-dihydropyrido[2,3-b][1,4]oxazin-1-yl]-2-(dimethylamino)ethanone], the Kd was greater than 1000 nM at FGFR1, greater than 1000 nM on FGFR2, 250 to 1000 nM at FGFR3 and 0.1 to 100 nM on FGFR4.
As for `COc1ncc(-c2n[nH]c3ccc(O[C@H](C)c4c(Cl)cncc4Cl)cc23)cc1NC(=O)c1ccccn1` [Example 2, (R)—N-(5-(5-(1-(3,5-Dichloropyridin-4-yl)ethoxy)-1H-indazol-3-yl)-2-methoxypyridin-3-yl)picolinamide], the dissociation constant Kd is greater than 1000 nM on FGFR1, greater than 1000 nM at FGFR2, greater than 1000 nM on FGFR3 and 0.1 to 100 nM on FGFR4.
As for `C[C@@H](Oc1ccc2[nH]nc(-c3cnc4c(c3)OCC(=O)N4)c2c1)c1c(Cl)cncc1Cl` [Example 38, 7-[5-[(1R)-1-(3,5-dichloro-4-pyridyl)ethoxy]-1H-indazol-3-yl]-4H-pyrido[3,2-b][1,4]oxazin-3-one], the equilibrium dissociation constant (Kd) on FGFR1, on FGFR2, at FGFR3 and on FGFR4 was 0.1 to 100 nM throughout.
Regarding `C[C@@H](Oc1ccc2[nH]nc(-c3ccc(S(C)(=O)=O)nc3)c2c1)c1c(Cl)cncc1Cl` [Example 10, (R)-5-(1-(3,5-Dichloropyridin-4-yl)ethoxy)-3-(6-(methylsulfonyl)pyridin-3-yl)-1H-indazole], the Kd on FGFR1, at FGFR2, at FGFR3 and at FGFR4 was 0.1 to 100 nM throughout.
On to `COc1cc2[nH]nc(-c3cnc4c(c3)N(S(C)(=O)=O)CCO4)c2cc1O[C@H](C)c1c(Cl)cncc1Cl` [Example 140, 7-[5-[(1R)-1-(3,5-dichloro-4-pyridyl)ethoxy]-6-methoxy-1H-indazol-3-yl]-1-methylsulfonyl-2,3-dihydropyrido[2,3-b][1,4]oxazine], for which the dissociation constant Kd at FGFR1 was 250 to 1000 nM; at FGFR2 it was 250 to 1000 nM; on FGFR3, 100 to 250 nM; at FGFR4, 0.1 to 100 nM.
Consider `COCCOc1cc(C#N)cc(-c2n[nH]c3ccc(O[C@H](C)c4c(C)cnnc4C)cc23)c1` [Example 75, 3-[5-[(1R)-1-(3,5-dimethylpyridazin-4-yl)ethoxy]-1H-indazol-3-yl]-5-(2-methoxyethoxy)-benzonitrile], for which the dissociation constant (Kd) on FGFR1 was 100 to 250 nM; at FGFR2 it was 100 to 250 nM; on FGFR3, 0.1 to 100 nM; at FGFR4 it was 0.1 to 100 nM.
For the molecule `COc1cc2[nH]nc(-c3ccc(N(C)C)nc3)c2cc1O[C@H](C)c1c(Cl)cnc(C)c1Cl` [Example 149, 5-[5-[(1R)-1-(3,5-dichloro-2-methyl-4-pyridyl)ethoxy]-6-methoxy-1H-indazol-3-yl]-N,N-dimethyl-pyridin-2-amine], the Kd on FGFR1, at FGFR2, on FGFR3 and at FGFR4 was 0.1 to 100 nM throughout.
As to `Cc1cc(-c2n[nH]c3ccc(O[C@@H](C)c4c(C)cnnc4C)cc23)cc(C#N)n1` [Example 70, 4-[5-[(1S)-1-(3,5-Dimethylpyridazin-4-yl)ethoxy]-1H-indazol-3-yl]-6-methyl-pyridine-2-carbonitrile], the Kd on FGFR1, on FGFR2, at FGFR3 and on FGFR4 was greater than 1000 nM throughout.
Turning to `COc1cc2[nH]nc(-c3cnc4c(c3)NCCO4)c2cc1O[C@H](C)c1c(Cl)cncc1Cl` [Example 146], the Kd on FGFR1, on FGFR2, at FGFR3 and at FGFR4 was 0.1 to 100 nM throughout.
`COc1cc2[nH]nc(-c3cnc(N(C)C)c(C#N)c3)c2cc1O[C@H](C)c1c(Cl)cncc1Cl` [Example 131, 5-[5-[(1R)-1-(3,5-dichloro-4-pyridyl)ethoxy]-6-methoxy-1H-indazol-3-yl]-2-(dimethylamino)pyridine-3-carbonitrile]: the dissociation constant Kd at FGFR1, on FGFR2, at FGFR3 and at FGFR4 was 0.1 to 100 nM each time.
Turning to `C[C@@H](Oc1ccc2[nH]nc(-c3ccnc(NCCO)c3)c2c1)c1c(Cl)cncc1Cl` [Example 36, 2-[[4-[5-[(1R)-1-(3,5-Dichloro-4-pyridyl)ethoxy]-1H-indazol-3-yl]-2-pyridyl]amino]ethanol], the Kd on FGFR1, on FGFR2, at FGFR3 and on FGFR4 was 0.1 to 100 nM throughout.
For `CCN1CCC2(CC1)CC(O)c1cc(-c3n[nH]c4ccc(O[C@H](C)c5c(Cl)cncc5Cl)cc34)ccc1O2` (stereo partly drawn) [Example 103, 6-[5-[(1R)-1-(3,5-Dichloro-4-pyridyl)ethoxy]-1H-indazol-3-yl]-1′-ethyl-spiro[chromane-2,4′-piperidine]-4-ol], the Kd on FGFR1 (given as a number, not a class symbol) was 45 nM; on FGFR2, 100 to 250 nM; on FGFR3 it was 0.1 to 100 nM; at FGFR4, 0.1 to 100 nM.
As to `COc1cc2[nH]nc(-c3cc(C#N)c(OC)c(OC)c3)c2cc1O[C@H](C)c1c(C)cnnc1C` [Example 102, (R)-5-(5-(1-(3,5-dimethylpyridazin-4-yl)ethoxy)-6-methoxy-1H-indazol-3-yl)-2,3-dimethoxybenzonitrile], the equilibrium dissociation constant (Kd) was in the range of 100 to 250 nM at FGFR1, 100 to 250 nM at FGFR2, 0.1 to 100 nM at FGFR3 and 0.1 to 100 nM on FGFR4.
`COc1ncc(-c2n[nH]c3ccc(O[C@H](C)c4c(Cl)cncc4Cl)cc23)cc1C#N` [Example 74, 5-[5-[(1R)-1-(3,5-dichloro-4-pyridyl)ethoxy]-1H-indazol-3-yl]-2-methoxy-pyridine-3-carbonitrile]: the dissociation constant Kd at FGFR1 is 250 to 1000 nM; on FGFR2, 250 to 1000 nM; on FGFR3 it was 0.1 to 100 nM; on FGFR4 it was 0.1 to 100 nM.
Take `COc1cc(OC)cc(-c2n[nH]c3ccc(O[C@H](C)c4c(C)cnnc4C)cc23)c1` [Example 54, 3-(3,5-dimethoxyphenyl)-5-[(1R)-1-(3,5-dimethylpyridazin-4-yl)ethoxy]-1H-indazole]: the Kd was 250 to 1000 nM on FGFR1, 250 to 1000 nM on FGFR2, 0.1 to 100 nM on FGFR3 and 0.1 to 100 nM at FGFR4.
`C[C@@H](Oc1ccc2[nH]nc(-c3cnc4c(c3)N(C(=O)OCCCN(C)C)CCO4)c2c1)c1c(Cl)cncc1Cl` [Example 43, 3-(dimethyl-amino)propyl 7-[5-[(1R)-1-(3,5-dichloro-4-pyridyl)ethoxy]-1H-indazol-3-yl]-2,3-dihydro-pyrido[2,3-b][1,4]oxazine-1-carboxylate]: the Kd lay within 250 to 1000 nM at FGFR1, 250 to 1000 nM on FGFR2, 0.1 to 100 nM at FGFR3 and 0.1 to 100 nM on FGFR4.
Turning to `COc1cc(C#N)cc(-c2n[nH]c3cc(OC)c(O[C@H](C)c4c(C)cnnc4C)cc23)c1` [Example 101, (R)-3-(5-(1-(3,5-dimethylpyridazin-4-yl)ethoxy)-6-methoxy-1H-indazol-3-yl)-5-methoxybenzonitrile], the Kd at FGFR1, on FGFR2 and at FGFR3 was 0.1 to 100 nM in each case.
